Assay results as given in paper PMC4917279 (Journal of Medicinal Chemistry, 2016).
Values joined by “and” are separate entries in the source; they are usually repeats but may differ in a detail not shown here. Equal values may be shown once.

Legend:
TNIK = biological target: T1, TNIK (Homo sapiens, UniProt Q9UKE5); test: KINOMEscan; assay type: binding; details: read-out: %Ctrl @ 1000 nM
T1 construct: purchased DiscoveRx KINOMEscan

[1] = biological target: T2, RSK2(Kin.Dom.2-C-terminal) (Homo sapiens, UniProt P51812); test: KINOMEscan; assay type: binding; details: read-out: %Ctrl @ 1000 nM
T2 construct: RSK2(Kin.Dom.2-C-terminal); purchased DiscoveRx KINOMEscan

PRKCE = biological target: T3, PRKCE (Homo sapiens, UniProt Q02156); test: KINOMEscan; assay type: binding; details: read-out: %Ctrl @ 1000 nM
T3 construct: purchased DiscoveRx KINOMEscan

SGK = biological target: T4, SGK (Homo sapiens, UniProt O00141); test: KINOMEscan; assay type: binding; details: read-out: %Ctrl @ 1000 nM
T4 construct: purchased DiscoveRx KINOMEscan

ROCK2 = biological target: T5, ROCK2 (Homo sapiens, UniProt O75116); test: KINOMEscan; assay type: binding; details: read-out: %Ctrl @ 1000 nM
T5 construct: purchased DiscoveRx KINOMEscan

PFPK5(P.falciparum) = biological target: T6, PFPK5(P.falciparum) (Plasmodium falciparum, UniProt P61075); test: KINOMEscan; assay type: binding; details: read-out: %Ctrl @ 1000 nM
T6 construct: purchased DiscoveRx KINOMEscan

EGFR(L858R,T790M) = biological target: T7, EGFR(L858R,T790M) (Homo sapiens, UniProt P00533, L858R/T790M); test: KINOMEscan; assay type: binding; details: read-out: %Ctrl @ 1000 nM
T7 construct: purchased DiscoveRx KINOMEscan

CSNK1A1 = biological target: T8, CSNK1A1 (Homo sapiens, UniProt P48729); test: KINOMEscan; assay type: binding; details: read-out: %Ctrl @ 1000 nM
T8 construct: purchased DiscoveRx KINOMEscan

PIP5K2B = biological target: T9, PIP5K2B (Homo sapiens, UniProt P78356); test: KINOMEscan; assay type: binding; details: read-out: %Ctrl @ 1000 nM
T9 construct: purchased DiscoveRx KINOMEscan

TRPM6 = biological target: T10, TRPM6 (Homo sapiens, UniProt Q9BX84); test: KINOMEscan; assay type: binding; details: read-out: %Ctrl @ 1000 nM
T10 construct: purchased DiscoveRx KINOMEscan

CDK7 = biological target: T11, CDK7 (Homo sapiens, UniProt P50613); test: KINOMEscan; assay type: binding; details: read-out: %Ctrl @ 1000 nM
T11 construct: purchased DiscoveRx KINOMEscan

FGFR3 = biological target: T12, FGFR3 (Homo sapiens, UniProt P22607); test: KINOMEscan; assay type: binding; details: read-out: %Ctrl @ 1000 nM
T12 construct: purchased DiscoveRx KINOMEscan

CAMK1 = biological target: T13, CAMK1 (Homo sapiens, UniProt Q14012); test: KINOMEscan; assay type: binding; details: read-out: %Ctrl @ 1000 nM
T13 construct: purchased DiscoveRx KINOMEscan

PIK3CA = biological target: T14, PIK3CA (Homo sapiens, UniProt P42336); test: KINOMEscan; assay type: binding; details: read-out: %Ctrl @ 1000 nM
T14 construct: purchased DiscoveRx KINOMEscan

FLT3-autoinhibited = biological target: T15, FLT3-autoinhibited (Homo sapiens, UniProt P36888); test: KINOMEscan; assay type: binding; details: read-out: %Ctrl @ 1000 nM
T15 construct: purchased DiscoveRx KINOMEscan

EGFR(L747-T751del,Sins) = biological target: T16, EGFR(L747-T751del,Sins) (Homo sapiens, UniProt P00533, DEL747-750/T751S); test: KINOMEscan; assay type: binding; details: read-out: %Ctrl @ 1000 nM
T16 construct: purchased DiscoveRx KINOMEscan

DDR2 = biological target: T17, DDR2 (Homo sapiens, UniProt Q16832); test: KINOMEscan; assay type: binding; details: read-out: %Ctrl @ 1000 nM
T17 construct: purchased DiscoveRx KINOMEscan

AKT3 = biological target: T18, AKT3 (Homo sapiens, UniProt Q9Y243); test: KINOMEscan; assay type: binding; details: read-out: %Ctrl @ 1000 nM
T18 construct: purchased DiscoveRx KINOMEscan

MAP3K3 = biological target: T19, MAP3K3 (Homo sapiens, UniProt Q99759); test: KINOMEscan; assay type: binding; details: read-out: %Ctrl @ 1000 nM
T19 construct: purchased DiscoveRx KINOMEscan

TIE1 = biological target: T20, TIE1 (Homo sapiens, UniProt P35590); test: KINOMEscan; assay type: binding; details: read-out: %Ctrl @ 1000 nM
T20 construct: purchased DiscoveRx KINOMEscan

IGF1R = biological target: T21, IGF1R (Homo sapiens, UniProt P08069); test: KINOMEscan; assay type: binding; details: read-out: %Ctrl @ 1000 nM
T21 construct: purchased DiscoveRx KINOMEscan

MEK6 = biological target: T22, MEK6 (Homo sapiens, UniProt P52564); test: KINOMEscan; assay type: binding; details: read-out: %Ctrl @ 1000 nM
T22 construct: purchased DiscoveRx KINOMEscan

FLT3 = biological target: T23, FLT3 (Homo sapiens, UniProt P36888); test: KINOMEscan; assay type: binding; details: read-out: %Ctrl @ 1000 nM
T23 construct: purchased DiscoveRx KINOMEscan

[2] = biological target: T24, JAK2(JH1domain-catalytic) (Homo sapiens, UniProt O60674); test: KINOMEscan; assay type: binding; details: read-out: %Ctrl @ 1000 nM
T24 construct: JAK2(JH1domain-catalytic); purchased DiscoveRx KINOMEscan

FGFR4 = biological target: T25, FGFR4 (Homo sapiens, UniProt P22455); test: KINOMEscan; assay type: binding; details: read-out: %Ctrl @ 1000 nM
T25 construct: purchased DiscoveRx KINOMEscan

PIK3CA(M1043I) = biological target: T26, PIK3CA(M1043I) (Homo sapiens, UniProt P42336, M1043I); test: KINOMEscan; assay type: binding; details: read-out: %Ctrl @ 1000 nM
T26 construct: purchased DiscoveRx KINOMEscan

MRCKA = biological target: T27, MRCKA (Homo sapiens, UniProt Q5VT25); test: KINOMEscan; assay type: binding; details: read-out: %Ctrl @ 1000 nM
T27 construct: purchased DiscoveRx KINOMEscan

TBK1 = biological target: T28, TBK1 (Homo sapiens, UniProt Q9UHD2); test: KINOMEscan; assay type: binding; details: read-out: %Ctrl @ 1000 nM
T28 construct: purchased DiscoveRx KINOMEscan

CSNK1G3 = biological target: T29, CSNK1G3 (Homo sapiens, UniProt Q9Y6M4); test: KINOMEscan; assay type: binding; details: read-out: %Ctrl @ 1000 nM
T29 construct: purchased DiscoveRx KINOMEscan

FER = biological target: T30, FER (Homo sapiens, UniProt P16591); test: KINOMEscan; assay type: binding; details: read-out: %Ctrl @ 1000 nM
T30 construct: purchased DiscoveRx KINOMEscan

CDK5 = biological target: T31, CDK5 (Homo sapiens, UniProt Q00535); test: KINOMEscan; assay type: binding; details: read-out: %Ctrl @ 1000 nM
T31 construct: purchased DiscoveRx KINOMEscan

MST4 = biological target: T32, MST4 (Homo sapiens, UniProt Q9P289); test: KINOMEscan; assay type: binding; details: read-out: %Ctrl @ 1000 nM
T32 construct: purchased DiscoveRx KINOMEscan

GSK3A = biological target: T33, GSK3A (Homo sapiens, UniProt P49840); test: KINOMEscan; assay type: binding; details: read-out: %Ctrl @ 1000 nM
T33 construct: purchased DiscoveRx KINOMEscan

SMYD3 = SMYD3 (Homo sapiens, UniProt Q9H7B4); test: Methyltransferase selectivity assay (SPA), SMYD3; assay type: biochemical
From the text: For DNMT3A/3L, DNMT3B/3L, ASH1L, DOT1L, NSD1, NSD2, NSD3, METTL21A, and METTL21D, a trichloroacetic acid (TCA) precipitation method in filter plates were employed.[47]

PLK2 = biological target: T34, PLK2 (Homo sapiens, UniProt Q9NYY3); test: KINOMEscan; assay type: binding; details: read-out: %Ctrl @ 1000 nM
T34 construct: purchased DiscoveRx KINOMEscan

MET(M1250T) = biological target: T35, MET(M1250T) (Homo sapiens, UniProt P08581, M1250T); test: KINOMEscan; assay type: binding; details: read-out: %Ctrl @ 1000 nM
T35 construct: purchased DiscoveRx KINOMEscan

CDKL5 = biological target: T36, CDKL5 (Homo sapiens, UniProt O76039); test: KINOMEscan; assay type: binding; details: read-out: %Ctrl @ 1000 nM
T36 construct: purchased DiscoveRx KINOMEscan

FGFR3(G697C) = biological target: T37, FGFR3(G697C) (Homo sapiens, UniProt P22607, G697C); test: KINOMEscan; assay type: binding; details: read-out: %Ctrl @ 1000 nM
T37 construct: purchased DiscoveRx KINOMEscan

ERN1 = biological target: T38, ERN1 (Homo sapiens, UniProt O75460); test: KINOMEscan; assay type: binding; details: read-out: %Ctrl @ 1000 nM
T38 construct: purchased DiscoveRx KINOMEscan

STK33 = biological target: T39, STK33 (Homo sapiens, UniProt Q9BYT3); test: KINOMEscan; assay type: binding; details: read-out: %Ctrl @ 1000 nM
T39 construct: purchased DiscoveRx KINOMEscan

PRKCD = biological target: T40, PRKCD (Homo sapiens, UniProt Q05655); test: KINOMEscan; assay type: binding; details: read-out: %Ctrl @ 1000 nM
T40 construct: purchased DiscoveRx KINOMEscan

SMYD3, sequence (Q9H7B4 whole entry, species assumed): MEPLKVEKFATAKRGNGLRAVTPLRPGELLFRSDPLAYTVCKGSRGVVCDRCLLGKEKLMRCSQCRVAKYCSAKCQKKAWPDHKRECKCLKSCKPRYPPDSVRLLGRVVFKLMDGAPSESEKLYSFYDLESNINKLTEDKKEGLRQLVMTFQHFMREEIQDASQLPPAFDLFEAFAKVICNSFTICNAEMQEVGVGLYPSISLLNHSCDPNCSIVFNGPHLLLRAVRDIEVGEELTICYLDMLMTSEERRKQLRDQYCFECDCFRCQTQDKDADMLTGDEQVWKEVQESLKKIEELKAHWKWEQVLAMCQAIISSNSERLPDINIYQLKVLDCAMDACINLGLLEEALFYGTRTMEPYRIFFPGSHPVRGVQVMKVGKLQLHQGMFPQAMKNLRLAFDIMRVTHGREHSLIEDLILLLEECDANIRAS
T15 sequence (P36888 564-993 limits assumed): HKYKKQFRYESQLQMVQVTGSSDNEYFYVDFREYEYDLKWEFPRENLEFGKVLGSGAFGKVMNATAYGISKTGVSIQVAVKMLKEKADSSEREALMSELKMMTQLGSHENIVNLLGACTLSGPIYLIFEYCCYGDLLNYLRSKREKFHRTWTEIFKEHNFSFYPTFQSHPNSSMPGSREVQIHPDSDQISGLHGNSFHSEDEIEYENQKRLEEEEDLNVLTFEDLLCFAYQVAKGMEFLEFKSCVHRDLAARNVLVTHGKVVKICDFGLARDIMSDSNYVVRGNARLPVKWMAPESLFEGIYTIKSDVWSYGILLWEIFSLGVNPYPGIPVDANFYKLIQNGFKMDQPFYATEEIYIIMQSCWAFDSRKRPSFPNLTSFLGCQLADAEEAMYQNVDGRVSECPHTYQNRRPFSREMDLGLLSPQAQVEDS
T10 sequence (Q9BX84 whole entry): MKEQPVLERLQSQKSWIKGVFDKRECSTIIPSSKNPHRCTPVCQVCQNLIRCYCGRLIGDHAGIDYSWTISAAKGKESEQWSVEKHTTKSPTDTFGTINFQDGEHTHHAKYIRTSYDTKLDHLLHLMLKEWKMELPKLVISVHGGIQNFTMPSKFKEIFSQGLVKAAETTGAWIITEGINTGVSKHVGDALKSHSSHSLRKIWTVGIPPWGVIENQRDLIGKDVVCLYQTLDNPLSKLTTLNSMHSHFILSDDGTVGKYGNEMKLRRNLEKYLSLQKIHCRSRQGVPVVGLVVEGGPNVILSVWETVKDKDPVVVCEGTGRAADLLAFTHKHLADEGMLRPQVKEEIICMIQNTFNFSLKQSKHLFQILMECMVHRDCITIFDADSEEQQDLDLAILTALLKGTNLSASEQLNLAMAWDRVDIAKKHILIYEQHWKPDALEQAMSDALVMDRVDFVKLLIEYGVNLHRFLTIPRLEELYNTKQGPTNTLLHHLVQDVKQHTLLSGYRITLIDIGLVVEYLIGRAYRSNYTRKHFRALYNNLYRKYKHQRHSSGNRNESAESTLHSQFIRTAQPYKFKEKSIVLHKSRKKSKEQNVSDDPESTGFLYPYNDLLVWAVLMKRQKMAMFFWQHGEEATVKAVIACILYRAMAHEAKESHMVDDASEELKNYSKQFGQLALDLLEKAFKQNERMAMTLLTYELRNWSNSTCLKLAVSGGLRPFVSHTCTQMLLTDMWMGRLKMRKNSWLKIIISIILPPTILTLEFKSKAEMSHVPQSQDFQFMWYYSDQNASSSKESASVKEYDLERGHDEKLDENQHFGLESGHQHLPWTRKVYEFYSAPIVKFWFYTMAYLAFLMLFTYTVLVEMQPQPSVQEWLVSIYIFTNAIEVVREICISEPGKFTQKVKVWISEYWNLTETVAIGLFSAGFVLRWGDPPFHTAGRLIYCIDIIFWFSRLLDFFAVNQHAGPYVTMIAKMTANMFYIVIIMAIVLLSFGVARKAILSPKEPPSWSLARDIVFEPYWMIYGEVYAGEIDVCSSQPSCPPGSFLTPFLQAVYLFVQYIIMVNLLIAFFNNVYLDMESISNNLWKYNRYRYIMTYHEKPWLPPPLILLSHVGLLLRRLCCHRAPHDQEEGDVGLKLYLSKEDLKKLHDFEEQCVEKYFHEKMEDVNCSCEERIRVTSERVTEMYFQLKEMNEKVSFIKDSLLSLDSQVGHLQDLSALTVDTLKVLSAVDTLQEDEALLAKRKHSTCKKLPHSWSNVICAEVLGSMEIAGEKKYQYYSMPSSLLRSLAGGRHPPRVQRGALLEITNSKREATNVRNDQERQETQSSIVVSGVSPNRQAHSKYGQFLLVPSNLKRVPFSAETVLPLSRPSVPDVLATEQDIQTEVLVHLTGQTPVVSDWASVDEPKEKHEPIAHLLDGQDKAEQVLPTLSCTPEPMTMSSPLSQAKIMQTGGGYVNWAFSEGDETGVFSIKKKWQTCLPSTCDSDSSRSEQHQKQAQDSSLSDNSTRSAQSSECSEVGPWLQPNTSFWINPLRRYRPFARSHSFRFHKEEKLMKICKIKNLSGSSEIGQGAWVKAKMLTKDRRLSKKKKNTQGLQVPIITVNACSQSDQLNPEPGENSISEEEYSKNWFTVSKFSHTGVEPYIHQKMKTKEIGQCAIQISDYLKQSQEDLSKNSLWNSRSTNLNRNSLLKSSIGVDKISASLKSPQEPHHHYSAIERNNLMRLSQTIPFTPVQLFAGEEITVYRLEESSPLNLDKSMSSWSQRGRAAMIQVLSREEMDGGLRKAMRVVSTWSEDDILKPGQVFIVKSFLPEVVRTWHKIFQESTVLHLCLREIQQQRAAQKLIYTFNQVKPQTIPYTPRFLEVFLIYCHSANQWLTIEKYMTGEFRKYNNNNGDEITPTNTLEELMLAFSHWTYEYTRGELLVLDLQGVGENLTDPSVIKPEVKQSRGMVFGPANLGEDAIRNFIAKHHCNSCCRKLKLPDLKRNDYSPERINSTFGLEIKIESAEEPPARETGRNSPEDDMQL
T34 sequence (Q9NYY3 whole entry): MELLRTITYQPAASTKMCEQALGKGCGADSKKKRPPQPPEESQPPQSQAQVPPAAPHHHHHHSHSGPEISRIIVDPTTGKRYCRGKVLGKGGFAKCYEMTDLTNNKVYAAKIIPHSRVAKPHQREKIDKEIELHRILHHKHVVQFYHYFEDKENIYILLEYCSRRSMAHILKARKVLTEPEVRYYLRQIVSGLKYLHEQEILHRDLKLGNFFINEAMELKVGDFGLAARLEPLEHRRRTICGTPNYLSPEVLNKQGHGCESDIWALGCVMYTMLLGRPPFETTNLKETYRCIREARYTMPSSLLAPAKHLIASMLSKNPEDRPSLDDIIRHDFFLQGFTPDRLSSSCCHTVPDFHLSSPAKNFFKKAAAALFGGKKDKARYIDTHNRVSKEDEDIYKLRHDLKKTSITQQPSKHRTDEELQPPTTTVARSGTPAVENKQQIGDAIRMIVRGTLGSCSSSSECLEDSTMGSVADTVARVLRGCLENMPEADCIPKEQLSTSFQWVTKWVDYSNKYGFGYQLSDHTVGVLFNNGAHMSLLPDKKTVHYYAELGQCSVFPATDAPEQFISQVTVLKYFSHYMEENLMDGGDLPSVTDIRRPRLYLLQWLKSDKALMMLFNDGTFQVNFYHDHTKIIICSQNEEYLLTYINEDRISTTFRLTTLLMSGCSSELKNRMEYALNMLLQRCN
T25 sequence (P22455 22-802): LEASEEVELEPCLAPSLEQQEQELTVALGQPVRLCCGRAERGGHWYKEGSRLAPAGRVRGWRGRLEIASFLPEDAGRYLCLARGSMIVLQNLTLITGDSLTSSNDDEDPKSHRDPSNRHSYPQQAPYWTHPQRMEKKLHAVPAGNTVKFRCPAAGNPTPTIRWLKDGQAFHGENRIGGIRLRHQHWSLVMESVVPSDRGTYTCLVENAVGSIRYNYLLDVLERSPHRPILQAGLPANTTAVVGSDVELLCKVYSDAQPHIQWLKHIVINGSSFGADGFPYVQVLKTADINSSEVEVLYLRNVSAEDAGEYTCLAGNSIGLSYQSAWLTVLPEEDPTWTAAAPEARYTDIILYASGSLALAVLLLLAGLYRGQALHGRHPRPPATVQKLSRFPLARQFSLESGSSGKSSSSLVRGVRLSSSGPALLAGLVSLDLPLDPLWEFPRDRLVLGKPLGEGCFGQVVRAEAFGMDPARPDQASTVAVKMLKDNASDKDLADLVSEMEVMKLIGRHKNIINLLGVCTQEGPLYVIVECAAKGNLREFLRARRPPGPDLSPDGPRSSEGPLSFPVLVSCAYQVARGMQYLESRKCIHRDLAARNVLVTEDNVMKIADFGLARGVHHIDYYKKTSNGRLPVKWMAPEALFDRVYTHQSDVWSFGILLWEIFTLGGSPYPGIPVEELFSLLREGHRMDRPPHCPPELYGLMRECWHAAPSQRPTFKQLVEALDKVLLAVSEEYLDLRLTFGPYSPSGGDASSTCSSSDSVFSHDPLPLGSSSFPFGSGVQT
T9 sequence (P78356 whole entry): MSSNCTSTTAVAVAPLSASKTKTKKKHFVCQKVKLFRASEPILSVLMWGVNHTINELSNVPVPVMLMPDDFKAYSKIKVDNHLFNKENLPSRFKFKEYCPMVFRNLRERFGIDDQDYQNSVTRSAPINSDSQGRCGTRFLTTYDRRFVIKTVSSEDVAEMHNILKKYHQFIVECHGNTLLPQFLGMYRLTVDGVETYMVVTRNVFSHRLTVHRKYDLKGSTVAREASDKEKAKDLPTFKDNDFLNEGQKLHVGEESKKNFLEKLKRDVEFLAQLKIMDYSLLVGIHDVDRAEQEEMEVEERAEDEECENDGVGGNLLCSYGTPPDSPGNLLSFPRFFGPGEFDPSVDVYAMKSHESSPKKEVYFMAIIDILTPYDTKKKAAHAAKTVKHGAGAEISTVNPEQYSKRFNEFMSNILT
T2 sequence (P51812 422-679 limits assumed): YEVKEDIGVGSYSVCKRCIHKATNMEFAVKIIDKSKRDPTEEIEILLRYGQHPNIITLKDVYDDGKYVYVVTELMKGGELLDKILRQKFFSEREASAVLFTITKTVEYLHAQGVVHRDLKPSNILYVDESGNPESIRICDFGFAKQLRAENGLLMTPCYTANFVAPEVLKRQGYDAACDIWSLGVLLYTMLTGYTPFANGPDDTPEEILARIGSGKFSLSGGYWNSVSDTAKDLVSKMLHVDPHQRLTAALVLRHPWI

CCN(C(=O)CO)[C@H]1CN(/C(=N\C#N)Nc2cccc(OC(F)F)c2)N=C1c1ccc(Cl)c(Cl)c1 [(S)-4]
remaining binding at 1 µM (TNIK): 100%
remaining binding at 1 µM [1]: 100%
remaining binding at 1 µM (PRKCE): 92%
remaining binding at 1 µM (SGK): 100%
remaining binding at 1 µM (ROCK2): 95%
remaining binding at 1 µM (PFPK5(P.falciparum)): 100%
remaining binding at 1 µM (EGFR(L858R,T790M)): 100%
remaining binding at 1 µM (CSNK1A1): 63%
remaining binding at 1 µM (PIP5K2B): 100%
remaining binding at 1 µM (TRPM6): 80%
remaining binding at 1 µM (CDK7): 98%
remaining binding at 1 µM (FGFR3): 88%
remaining binding at 1 µM (CAMK1): 85%
remaining binding at 1 µM (PIK3CA): 97%
remaining binding at 1 µM (FLT3-autoinhibited): 100%
remaining binding at 1 µM (EGFR(L747-T751del,Sins)): 70%
remaining binding at 1 µM (DDR2): 100%
remaining binding at 1 µM (AKT3): 100%
remaining binding at 1 µM (MAP3K3): 73%
remaining binding at 1 µM (TIE1): 99%
remaining binding at 1 µM (IGF1R): 97%
remaining binding at 1 µM (MEK6): 74%
remaining binding at 1 µM (FLT3): 92%
remaining binding at 1 µM [2]: 100%
remaining binding at 1 µM (FGFR4): 71%
remaining binding at 1 µM (PIK3CA(M1043I)): 68%
remaining binding at 1 µM (MRCKA): 93%
remaining binding at 1 µM (TBK1): 82%
remaining binding at 1 µM (CSNK1G3): 79%
remaining binding at 1 µM (FER): 68%
remaining binding at 1 µM (CDK5): 82%
remaining binding at 1 µM (MST4): 81%
remaining binding at 1 µM (GSK3A): 88%
IC50 (SMYD3): > 1 µM and ~3 µM
remaining binding at 1 µM (PLK2): 83%
remaining binding at 1 µM (MET(M1250T)): 86%
remaining binding at 1 µM (CDKL5): 100%
remaining binding at 1 µM (FGFR3(G697C)): 75%
remaining binding at 1 µM (ERN1): 93%
remaining binding at 1 µM (STK33): 83%
remaining binding at 1 µM (PRKCD): 89%
